Reference: the NIST ThermoML archive (doi:10.1021/je900337a)

Tests used:
[1] = xn = mol fraction of the nth substance listed; conditions: 323.15 K; for viscosity / mass density: 101 kPa; for viscosity: Capillary tube (Ostwald / Ubbelohde) method
[2] = 323.15 K; for mass density / viscosity: 101.33 kPa, Liquid; for viscosity: Capillary tube (Ostwald / Ubbelohde) method

CCCCOC(C)=O [butyl ethanoate] + CCCO
[1], Liquid
Conditions	mass density [kg/m3]	viscosity [mPa·s]
x1 = 0.1	790.07	0.879
x1 = 0.2	799.51	0.747
x1 = 0.3	807.87	0.662
x1 = 0.4	815.42	0.604
x1 = 0.5	822.21	0.566
x1 = 0.6	828.46	0.538
x1 = 0.7	834.3	0.521
x1 = 0.8	839.71	0.508
x1 = 0.9	844.84	0.502

[1], Liquid, Ring tensiometer
Conditions	surface tension liquid-gas [mN/m]
x1 = 0.1	21.56
x1 = 0.2	21.72
x1 = 0.3	21.84
x1 = 0.4	21.97
x1 = 0.5	22.05
x1 = 0.6	22.12
x1 = 0.7	22.17
x1 = 0.8	22.2
x1 = 0.9	22.18

CCCO [propan-1-ol]
Conditions	surface tension liquid-gas [mN/m]
[2], Ring tensiometer	21.36

[2]
Conditions	mass density [kg/m3]	viscosity [mPa·s]
–	779.3	1.115

CCCCOC(C)=O [butyl ethanoate]
Conditions	surface tension liquid-gas [mN/m]
[2], Ring tensiometer	22.12

[2]
Conditions	mass density [kg/m3]	viscosity [mPa·s]
–	849.75	0.502

CCCO [propan-1-ol] + O
[1], Liquid
Conditions	mass density [kg/m3]	viscosity [mPa·s]
x2 = 0.05	782.94	1.121
x2 = 0.1	786.61	1.127
x2 = 0.2	794.62	1.15
x2 = 0.3	803.64	1.18
x2 = 0.4	814.4	1.219
x2 = 0.5	827.68	1.26
x2 = 0.6	844.41	1.291
x2 = 0.7	865.87	1.305
x2 = 0.8	894.61	1.256
x2 = 0.9	935.04	1.036
x2 = 0.95	959.71	0.827

[1], Liquid, Ring tensiometer
Conditions	surface tension liquid-gas [mN/m]
x2 = 0.05	21.55
x2 = 0.1	21.68
x2 = 0.2	21.93
x2 = 0.3	22.29
x2 = 0.4	22.68
x2 = 0.5	23.06
x2 = 0.6	23.42
x2 = 0.7	23.65
x2 = 0.8	24.12
x2 = 0.9	25.27
x2 = 0.92	26.37
x2 = 0.95	29.58
x2 = 0.98	44.44

O [water]
Conditions	surface tension liquid-gas [mN/m]
[2], ring detachment method	68.38

CCCCOC(C)=O [butyl ethanoate] + O
[1]
Conditions	interfacial tension [mN/m]	mass density [kg/m3]	surface tension liquid-gas [mN/m]	viscosity [mPa·s]
Liquid mixture 1, Ring tensiometer, x2 = 0.9998	14.2	–	–	–
Liquid mixture 2, Ring tensiometer, x2 = 0.1305	–	–	21.74	–
Liquid, x2 = 0.02	–	850.18	–	0.503
Liquid, x2 = 0.04	–	850.62	–	0.504
Liquid, x2 = 0.06	–	851.07	–	0.506
Liquid, x2 = 0.08	–	851.57	–	0.507

[1], Liquid, Ring tensiometer
Conditions	surface tension liquid-gas [mN/m]
x2 = 0.02	22.14
x2 = 0.04	22.17
x2 = 0.06	22.2
x2 = 0.08	22.25
